Test results: patent US8574829B2, “Methods of treating cancer with phenformin” (The Trustees Of The University Of Pennsylvania, priority 2009, dated 2013)
Entries after “also recorded” stand apart in the source; their conditions may differ.

Experiments:
STAT5 = experiment: Western blot of phospho-STAT5 (tyr694/699) in K562 cells 24 hours after inhibitor treatment; assay type: cell-based; settings: relative to untreated, FIG. 2
Text: (§1) Western Blot Analysis. Cells were lysed in radioimmunoprecipitation (RIPA) buffer containing protease inhibitors (Complete Mini, Roche Applied Science), and protease inihibitors cocktails I and II (Sigma). BCA Protein Assay kit (Pierce Biotechnology) was used to assess and standardize protein concentrations. Proteins were resolved using a 4-12% NuPage Bis-Tris polyacrylamide gels (Invitrogen), and transferred to nitrocellulose membranes. Membranes were blocked using 5% nonfat dry skim milk and 0.1% Tween. […] Bands were subsequently detected using horseradish-peroxidase conjugated anti-mouse or anti-rabbit secondary antibodies (GE Healthcare Industries) and enhanced chemiluminescence detection kit (Amersham).
(§2) To characterize the pattern of signaling pathway activation in inhibitor-treated cells, the activity of the Akt and Jak-STAT pathways were examined, two pathways known to be activated by the bcr-abl oncogenic signaling. Proteins were isolated from cells, 24 hours after inhibitor treatment, and assessed for levels of phospho-Akt ([…]) and phospho-STAT5 (tyr694/699), as well as total levels of these proteins as loading controls.

K562 cells [1] = experiment: Glutamine uptake of K562 cultures over four days; assay type: cell-based; settings: FIG. 8
Description: (§3) Daily cell culture supernatants were collected, and analyzed using the Nova Biomedical Bioprofile Flex Analyzer, which determined glucose, glutamine, lactate, and ammonia levels. For the HIF-1 induction experiments, K562 cells were incubated at 4 million cells/ml in a plastic tube (Falcon 35-2059) with rubber stopper (Kontes Glass Company #882310), with constant stirring at 37 C. At indicated time points, tubes were spun to pellet cells, and the glucose, lactate and pO2 content of supernatant was assessed by syringe sampling through an air-tight rubber stopper. After supernatant sampling, cells were collected and lysates were prepared as described above.
To further investigate what functional role the TCA cycle might play in K562 proliferation, we compared the ability of phenformin-treated cells to metabolize glutamine. In tumor cells, glutaminolysis is important in maintaining TCA cycle activity, as it serves to provide an additional source of TCA cycle intermediates (a-ketoglutarate) to the mitochondria.

K562 cells [2] = experiment: K562 cell viability by propidium iodide exclusion over four days; assay type: cell-based; settings: single dose, 1 mM phenformin, 750 nM imatinib, 25 nM rapamycin, FIG. 1B
Description: (§4) K562 cell line was obtained from ATCC.
K562 cells were treated with a single dose of imatinib, rapamycin, or phenformin, and assessed for cell number (Coulter Counter) and cell viability (by propidium iodide exclusion) over four days.

K562 cells [3] = experiment: K562 viability under medium depletion of glucose or glutamine (propidium iodide exclusion, FACS); assay type: cell-based; settings: K562, 4 days; FIG. 7
Description: as §4
The viability of K562 cells after variable inhibitor treatment, and selective medium depletion of glucose or glutamine, is shown. Cell viability was determined by propidium iodide exclusion of 10,000 cells (via FACS analysis), taken from each culture each day of experiment.

K562 cells [4] = experiment: K562 proliferation, cell number by Coulter Counter over four days after a single dose of inhibitor; settings: FIG. 1A; for effect on K562 proliferation (cell number): 25 nM rapamycin, four days
K562 cells [5] = experiment: Aerobic glycolysis: total glucose consumption and lactate production of K562 cultures over four days (Nova Bioprofile Flex Analyzer); assay type: cell-based; settings: for glucose consumption: FIG. 5A; for lactate production: FIG. 5B
Description: as §3
To investigate the metabolic effects of phenformin on K562 cells, we compared the glycolytic activity of the cells in the drug-treated cultures by quantifying total glucose consumption and lactate production over four days (FIGS. 5A and 5B, respectively), by collecting and analyzing daily cell culture supernatants using a Nova Biomedical Bioprofile Flex Analyzer. […] Phenformin was therefore novel in its ability to dissociate aerobic glycolysis from cell proliferation.

Akt = experiment: Western blot of phospho-Akt in K562 cells 24 hours after inhibitor treatment; assay type: cell-based; settings: relative to untreated, FIG. 2
Text: as §1, §2

K562 cells [6] = experiment: Comparison of phenformin and metformin: total K562 cell number after three days over a range of biguanide concentrations; assay type: cell-based; settings: three days after a single dose, FIG. 3; for inhibition of K562 proliferation: started at 200,000 cells/ml
Text: Direct comparison of metformin and phenformin activity, over a range of biguanide concentrations, was accomplished by comparing total K562 cell number after three days of exposure to a single dose of phenformin or metformin, as indicated (FIG. 3). Cell cultures were started at a density of 200,000 cells/ml.

[7] = treatment of diabetes; background statement; cited from earlier work
HIF-1 = HIF-1 induction in K562 cells in airtight tubes (Western blot); assay type: cell-based; settings: 37° C., FIG. 10D
Text: as §1
Daily cell culture supernatants were collected, and analyzed using the Nova Biomedical Bioprofile Flex Analyzer, which determined glucose, glutamine, lactate, and ammonia levels. […] At indicated time points, tubes were spun to pellet cells, and the glucose, lactate and pO2 content of supernatant was assessed by syringe sampling through an air-tight rubber stopper. […]
Phenformin-treated and untreated K562 cells were transferred to airtight tubes and incubated at 37° C. for 1 to 6 hours. At one hour intervals, supernatants were analyzed for partial oxygen pressure (pO2), glucose, and lactate levels, while cells were collected for protein extract preparation. […]

K562 cells [8] = experiment: pO2, glucose and lactate in supernatants of K562 cells incubated in airtight tubes at 37° C.; assay type: cell-based; settings: 1 to 6 hours, versus untreated, FIG. 10A
Description: as §3
Phenformin-treated and untreated K562 cells were transferred to airtight tubes and incubated at 37° C. for 1 to 6 hours. At one hour intervals, supernatants were analyzed for partial oxygen pressure (pO2), glucose, and lactate levels, while cells were collected for protein extract preparation. […] FIG. 10D. Tubulin serves as loading control.

[9] = system: Bax-Bak deficient lymphocytes; experiment: Proliferation of Bax-Bak deficient lymphocytes with IL-3 stimulation, total cell number after three days; assay type: cell-based; settings: three days after a single dose, started at 200,000 cells/ml, FIG. 4
Description: The ability of phenformin to inhibit the proliferation of Bax-Bak deficient lymphocytes, in the presence of IL-3 stimulation, was assessed, and compared to the activity of metformin. Direct comparison of metformin and phenformin activity, over a range of biguanide concentrations, was accomplished by comparing total cell numbers of bax-bak deficient cells after three days exposure to a single dose of phenformin or metformin, as indicated (FIG. 4). Cell cultures were started at a density of 200,000 cells/ml.

K562 cells [10] = experiment: Intracellular ATP levels (Invitrogen ATP determination kit); assay type: cell-based; settings: K562, 24 hours of inhibitor treatment; 25,000 cell pellets; FIG. 6B
Description: (§5) Oxygen consumption by whole cells was measured as previously described. See Schumacker P T, Chandei N, Agusti A G. Oxygen conformance of cellular respiration in hepatocytes. Am J. Physiol. 1993; 265:L395-402. Briefly, inhibitor-treated (24 hours) K562 cells were resuspended at a concentration of 4 million cells/ml, and 1.4 mL of culture was transferred to a water-jacketed, airtight 3 ml chamber with a Clarke oxygen electrode, (Hansatech Instruments). Electron transport activity was manipulated through mitochondrial uncoupling with 10 uL of 1 mM Carbonyl cyanide 3-chlorophenylhydrazone (CCCP) (Sigma), and media supplementation of sodium Succinate (25 uL of 1M stock), after membrane permeabilization with […] (4 ul of 25 mg/ml stock). Relative ATP levels were assessed using the Invitrogen ATP determination kit (A22066), as per protocol, using 25,000 cell pellets. Cells were assayed after 24 hours of inhibitor treatment, as indicated, and results were expressed as Arbitrary Units/25000 cells.
Cells were assayed after 24 hours of inhibitor treatment, as indicated, and results were expressed as Arbitrary Units/25000 cells. Oxygen consumption correlated closely with relative levels of intracellular ATP.

K562 cells [11] = experiment: Oxygen consumption rate (electron transport activity), Clarke oxygen electrode; assay type: cell-based; settings: 24 hours inhibitor treatment, relative to untreated, FIG. 6A
Description: as §5
Electron Transport Activity (ETC) activity, as determined by oxygen consumption rates, was assessed after treatment with each inhibitor, using a water-jacketed, airtight 3 ml chamber with a Clarke oxygen electrode, (Hansatech Instruments).

c-myc = experiment: Western blot of BCR-Abl-induced c-myc expression in K562 cells after 24 hours of inhibitor treatment; assay type: cell-based; settings: K562, 24 hours of inhibitor treatment; FIG. 9
Description: Western Blot Analysis. Cells were lysed in radioimmunoprecipitation (RIPA) buffer containing protease inhibitors (Complete Mini, Roche Applied Science), and protease inihibitors cocktails I and II (Sigma). BCA Protein Assay kit (Pierce Biotechnology) was used to assess and standardize protein concentrations. Proteins were resolved using a 4-12% NuPage Bis-Tris polyacrylamide gels (Invitrogen), and transferred to nitrocellulose membranes. Membranes were blocked using 5% nonfat dry skim milk and 0.1% Tween. Blots were subsequently probed with primary antibodies against: REDD-1 (Proteintech Group Inc), phospho-ser235/236 S6RP, total S6RP, phospho-thr172 AMPK, total-AMPK, phospho-tyr694/699 STAT5 (Upstate Biotechnology), total STAT5 (Upstate Biotechnology), phospho-thr202/tyr204 p42/44MAPK, total p42/44 MAPK, c-myc (Santa Cruz Biotechnologies), HIF-1a (Biosciences Pharmingen), and tubulin (Sigma). Unless otherwise indicated, all antibodies were obtained from Cell Signaling Technologies. Bands were subsequently detected using horseradish-peroxidase conjugated anti-mouse or anti-rabbit secondary antibodies (GE Healthcare Industries) and enhanced chemiluminescence detection kit (Amersham).
Expression levels of c-myc in inhibitor and untreated (U) control K562 cells was investigated by Western Blotting of cellular extracts prepared after 24 hours of inhibitor treatment.

[12] = 1 mM phenformin, 750 nM imatinib

SMILES | glutamine uptake (K562 cells [1]) | cell viability (K562 cells [2]) | cell viability in glutamine-depleted medium (K562 cells [3]) | effect on K562 proliferation (cell number) (K562 cells [4]; [12]) | glucose consumption (K562 cells [5]) | lactate production (K562 cells [5]) | Akt phosphorylation (Akt) | inhibition of K562 proliferation (K562 cells [6]) | risk / incidence of lactic acidosis [7] | other results
Cc1ccc(NC(=O)c2ccc(CN3CCN(C)CC3)cc2)cc1Nc1nccc(-c2cccnc2)n1 [imatinib] | failed to demonstrate substantial glutamine uptake | induced a decrease in viability | significantly increased cell death upon glutamine depletion | halted K562 proliferation | minimal glucose consumption | minimal glucose consumption and lactate production | left Akt phosphoylation intact |  |  | STAT5 phosphorylation (STAT5): decreased the levels of STAT5 phosphorylation; doubling of cell number achieved before proliferation ceased (K562 cells [4]; 750 nM imatinib): approximately one; time after which proliferation ceased (K562 cells [4]; 750 nM imatinib): 2 days
CN(C)C(=N)NC(=N)N [metformin] |  |  |  |  |  |  |  | relatively weak inhibitor of K562 proliferation | significantly less than that observed with phenformin | 
[H]/N=C(/N)N/C(=N/[H])NCCc1ccccc1 [phenformin] | failed to demonstrate substantial glutamine uptake | greater viability over the four days | significantly increased cell death upon glutamine depletion | halted K562 proliferation | consumed glucose at rates similar to untreated cells | accumulated lactate and consumed glucose at rates similar to untreated cells | no suppression of Akt phosphorylation | more potent inhibitor of K562 proliferation | increased risk of lactic acidosis | HIF-1 induction (HIF-1): prevented HIF-1 induction; also recorded: prevents hypoxia and HIF-1 induction; cell viability in glucose-depleted medium (K562 cells [3]): significantly increased cell death upon glucose depletion; potency in inhibiting K562 proliferation relative to metformin (K562 cells [6]): 100 fold; partial oxygen pressure (pO2) of the culture (K562 cells [8]): dramatically different partial oxygen pressures; also recorded: absence of hypoxia; also recorded: maintained an oxygen-rich environment; inhibition of proliferation of bax-bak deficient cells [9]: prevents proliferation of bax-bak deficient cells; also recorded: consistently more potent an inhibitor than metformin; intracellular ATP levels (K562 cells [10]): most profoundly reduced; oxygen consumption (K562 cells [11]): most dramatically reduced oxygen consumption; c-myc expression (c-myc): inhibited c-myc expression more effectively than rapamycin; also recorded: commensurate in efficacy with imatinib; time after which no increase in cell number was observed (K562 cells [4]; 1 mM phenformin): 24 h
